Among the data in PMC5501740 (Clinical and experimental allergy : journal of the British …, 2017) are Km values, retold here.

What all share (assay): fluorogenic AMC release, Michaelis-Menten fit
Common to all, as to assay type: biochemical, Blattella germanica
Common to all, as to settings: read-out: Substrate Km (μM) / QAR / Trypsin; 50 mM Tris-HCl pH 8, 0.2% NP40, 1.5 mM CaCl2

Assay [1] deals with E2.
Assay [2] relates to E3.
Assay [3] relates to E1.

Residues, ends and D or L forms follow the SMILES beside them. *: point of attachment. AMC = Cc1cc(=O)oc2cc(N*)ccc12; Boc = CC(C)(C)OC(=O)*

With `Cc1cc(=O)oc2cc(NC(=O)[C@H](CCCNC(=N)N)NC(=O)[C@H](C)NC(=O)[C@H](CCC(N)=O)NC(=O)OC(C)(C)C)ccc12` [QAR, Boc-Glutamine-Alanine-Arginine (QAR)-aminomethylcoumarin] (Boc-Gln-Ala-Arg-{AMC}), the Km stood at 2 ± 0.3 µM in assay [1], 3 ± 0.3 µM in assay [2] and 3 ± 0.8 µM in assay [3].
